From paper PMC3236199, “Development of Derivatives of 3, 3′-Diindolylmethane as Potent Leishmania donovani Bi-Subunit Topoisomerase IB Poisons” (PLoS ONE, 2011) come the findings set out here.

Test [1] has as its system L. donovani topoisomerase I. The test is described as follows: Immunoband depletion assay, topoisomerase I. The settings on record: 20 µM, 6 h incubation, promastigotes. The test is classed as cell-based, Leishmania donovani. The procedure: Leishmania cells (3×10^7) were cultured in absence and presence of the drugs. Nuclear fractions were isolated as described. Briefly, cells were suspended in hypotonic buffer (10 mM Tris-HCl, pH 7.5, 1 mM EDTA, 0.1 mM EGTA, 1 mM PMSF, 1 mM benzamidine hydrochloride and 5 mM DTT) and homogenized. The homogenate was centrifuged for 10 min at 10,000 g. The pellets were washed and used as the source of nuclear fraction. Thereafter, the nuclear fractions were lysed with 1% SDS and subjected to SDS-PAGE (10%). The proteins were electrophoretically transferred to nitrocellulose membranes and immumobloting of immobilized proteins were carried out using a rabbit polyclonal antibody raised against LdTOP1S for topoisomerase I and ATPase domain of L. donovani topoisomerase II [8].
We have reported earlier that DIM induces topoisomerase I and not topoisomerase II-mediated cleavable complex formation in L. donovani. To investigate the ability of DIM derivatives to induce in vivo covalent complex formation between topoisomerase I and DNA in the Leishmania parasites we performed the immunoband depletion experiments with L. donovani promastigotes. Nuclear fractions were prepared from untreated as well as drug-treated promastigotes and subjected to SDS-PAGE. If topoisomerase I can form a covalent complex with genomic DNA inside the cells, then topoisomerase I-DNA cleavable complex cannot enter into the gel. […] The presence of topoisomerase I was detected by immunoblotting as described in ‘Materials and Methods’. It was observed that the immunoband of topoisomerase I disappeared in presence of 20 µM of DIM, DPDIM, DMDIM and DMODIM for 6 h incubation respectively (lanes 2–5). […] It should be mentioned here that topoisomerase I of Leishmania is a heterodimer and the catalytic site (SKXXY) is present in the small subunit of enzyme (LdTOP1S), which is involved in the formation of topoisomerase I-DNA covalent complex. So we have used the antibody raised against the small subunit of L. donovani topoisomerase I to study the immunoband depletion assay.
Figure 6 DIM-derivatives induce in vivo formation of topoisomerase-DNA cleavable complex within the cells. Stabilization of topoisomerase-I mediated cleavable complex was determined by immunoband depletion assay. Top panel: Immunoband depletion of L. donovani topoisomerase I, using an antibody raised against […]. Leishmanial cells were treated with 0.2% DMSO alone (lane 1), 20 µM each of DIM (lane 2), DPDIM (lane 3), DMDIM (lane 4) and DMODIM (lane 5) respectively. Lanes 6–9, preincubation with 20 µM DHBA before treatment with DIM, DPDIM, DMDIM and DMODIM respectively. Bottom panel: β-tubulin loading control.

In test [2] the test system is DIM resistant parasites (LdDR50). The test is described as follows: DNA fragmentation assay (cell death detection ELISA), DIM resistant. In kind it is cell-based, Leishmania donovani. The note with it: 20 µM. The procedure: Leishmanial cells were cultured in 24-well plates and treated with 20 µM of DIM, DPDIM, DMDIM and DMODIM for different times. Samples were collected at requisite time points and subjected to measurement of DNA fragmentations. Cytoplasmic histone-associated DNA fragments (mononucleosome and oligonucleosomes) formed during apoptosis were detected using a cell death detection ELISA kit (Roche Biochemicals) by spectrophotometric measurement of microtiter plates in a Thermo MULTISKAN EX plate reader at 405 nm. The relative percentages (with respect to samples treated with micrococcal nuclease and normalized to percentage values) were plotted as units of time or drug concentrations as described previously.
The internucleosomal DNA digestion by an endogenous nuclease (genomic DNA fragmentation) is considered as a hallmark of apoptotic cell death. […] To investigate whether these derivatives also do the same, we performed the DNA fragmentation assay with wild type L. donovani AG83 promastigotes and DIM resistant parasites (Fig. 4) by ELISA as described in Materials and Methods. […] DNA fragmentation increased to 85%, 89%, 81% and 71% at 8 h of treatment in wild type parasites. The DIM resistant parasites (LdDR50) have much less effect in DNA fragmentation (13% at 6 h and 17% at 8 h) when treated with 20 µM DIM. On the other hand the extents of DNA fragmentations were 63%, 51% and 40% at 6 h treatment with DPDIM, DMDIM and DMODIM respectively. The extent of fragmentation increased to 82%, 74% and 65% after treatment for 8 h with the drugs as mentioned above.
Figure 4 DIM derivatives-induced fragmentation of genomic DNA in wild type and DIM resistant parasites. Relative percentage of DNA fragmentation measured by cell death detection ELISA kit in L. donovani promastigotes treated with DIM, DPDIM, DMDIM and DMODIM. The experiments were performed three times and representative data from one of these experiments as means ± SD.
A general note: An ELISA detects its analyte on a solid surface through an enzyme-linked reagent.

Regarding `COc1ccc2[nH]cc(Cc3c[nH]c4ccc(OC)cc34)c2c1` [DMODIM, 5,5′-dimethoxy 3,3′-diindolyl methane], in test [1], the “immunoband of topoisomerase I” value is listed as “disappeared”. The “fragmentation of DNA” value in test [2] (6 h) is 40%; in test [2] (8 h), 65%.
In the same order, the values of `c1ccc2c(Cc3c[nH]c4ccccc34)c[nH]c2c1` [DIM, 3, 3′-diindolyl methane, reference compound] are “disappeared”, 13% and 17%.
On to `c1ccc(-c2[nH]c3ccccc3c2Cc2c(-c3ccccc3)[nH]c3ccccc23)cc1` [DPDIM, 2,2′-diphenyl 3,3′-diindolyl methane], for which the “immunoband of topoisomerase I” value in test [1] is given as “disappeared”. Moreover, the “fragmentation of DNA” value in test [2] (6 h) is on record as 63%; in test [2] (8 h), 82%.
In the same order, the values of `Cc1[nH]c2ccccc2c1Cc1c(C)[nH]c2ccccc12` [DMDIM, 2,2′-dimethyl 3,3′-diindolyl methane] are “disappeared”, 51% and 74%.
